# According to patent US20200008426A1, “ACTIVE COMPOUND COMBINATIONS” (BAYER AKTIENGESELLSCHAFT, priority 2017, published 2020):
# “And” between values parts separate entries of the source, which are not always exact repeats. Equal entries are not always repeated. Where two headings read alike, the source gives them in different places.
# Key:
# Colletotrichum coccodes = test: In vivo preventive test on Colletotrichum (tomatoes); conditions: 3 days after inoculation
# Experimental: (§1) The test is evaluated 3 days after the inoculation.
# Phakopsora pachyrhizi = test: In vivo preventive test on Phakopsora (soybeans); conditions: 7 days after inoculation
# Alternaria solani = test: In vivo preventive test on Alternaria (tomatoes)
# Experimental: The plants are then placed in an incubation cabinet at approximately 20° C. and a relative atmospheric humidity of 100%.
# as §1
# Septoria tritici = test: In vivo preventive Septoria tritici test (wheat); conditions: 21 days after inoculation
# Experimental: After the spray coating has been dried, the plants are sprayed with a spore suspension of Septoria tritici.
# The test is evaluated 21 days after the inoculation.
# Pyrenophora teres = test: In vitro-Test with Pyrenophora teres; format: cell-based
# Puccinia triticina = test: In vivo preventive Puccinia triticina test (wheat); conditions: 8 days after inoculation; for pest or weed control at 20 ppm / pest or weed control at 40 ppm / pest or weed control at 80 ppm: Puccinia triticina, 192 h
# Experimental: After the spray coating has been dried, the plants are sprayed with a spore suspension of Puccinia triticina.
# The test is evaluated 8 days after the inoculation.
# Pyricularia oryzae = format: cell-based
# [1] = test system: fish (Danio rerio) embryos; test: In vivo ecotoxicity screening test on fish (Danio rerio); conditions: active compound alone; fish embryos, 96 h, 28.5° C.
# Experimental: with ECxi the Effect Concentration (EC) of each chemical i (in ppm) causing x % effect on the ecotoxicity test endpoint.
# For each compound combination, the predicted ECx value is calculated. It is then compared to an experimentally measured value. The ratio of predicted versus measured effect for the combination (thereafter called the Model Deviation Ratio or MDR) is then calculated.
# The environmental effect of the compound combinations was measured experimentally in laboratory ecotoxicity screening studies with fish (Danio rerio). […] Mortality was recorded after 96 h for each tested concentration and a reference control. […] Then, the MDR values were calculated.
# • Solvent: 0.5% by weight dimethyl sulfoxide
# This concentrate is then diluted with water to the desired a.i. concentration, leading to a maximal solvent concentration of 0.5% by weight. The compounds alone and the combinations were tested for five increasing concentrations between 0.01 and 1000 ppm a.i., (e.g. 0.1, 1.0, 10 and 100 ppm a.i). For the combinations, compounds A and B were mixed in a weight ratio of 5:1 to 1:5 and five increasing concentrations were tested for each ratio.
# Venturia inaequalis = test: In vivo preventive test on Venturia (apples); conditions: Table E1, 10 days after inoculation
# Experimental: The test is evaluated 10 days after the inoculation.
# [2] = LogP by HPLC on reversed phase columns (EEC directive 79/831 Annex V.A8); conditions: LC-UV, acidic range, 0.1% formic acid in water and acetonitrile
# Experimental: Measurement of LogP values was performed according to EEC directive 79/831 Annex V.A8 by HPLC (High Performance Liquid Chromatography) on reversed phase columns with the following methods:
# Lambda-max-values were determined using UV-spectra from 200 nm to 400 nm and the peak values of the chromatographic signals.
# [3] = Alternaria solani, 72 h, read-out: Efficacy in % found
compound,measurement,setting,value
"OC(Cc1ccccc1Cl)(Cn1nc[nH]c1=S)C1(Cl)CC1 (stereo not drawn) [1.018 prothioconazole, prothioconazole]",Efficacy in % found,"Colletotrichum coccodes; Table B1, 2.5 ppm a.i.",38%
same,Efficacy in % found,"Colletotrichum coccodes; Table B1, 5 ppm a.i.",59%
same,Efficacy in % found,"Colletotrichum coccodes; Table B1, 10 ppm a.i.",79%
"Cn1cc(C(=O)Nc2ccc(F)cc2-c2ccc(Cl)c(Cl)c2)c(C(F)F)n1 [2.002 bixafen, bixafen]",Efficacy in % found,"Phakopsora pachyrhizi; Table C2, 2.5 ppm a.i.",0%
same,Efficacy in % found,"Phakopsora pachyrhizi; Table C2, 5 ppm a.i.",0%
same,Efficacy in % found,"Phakopsora pachyrhizi; Table C2, 10 ppm a.i.",15%
"CON=C(C(=O)OC)c1ccccc1CON=C(C)c1cccc(C(F)(F)F)c1 [3.020 trifloxystrobin, trifloxystrobin]",pest or weed control at 1 ppm,"Alternaria solani; Alternaria solani, 72 h, Table A2, 1 ppm a.i., 3 days after inoculation, read-out: Efficacy in % found",24%
same,pest or weed control at 2 ppm,"Alternaria solani; Alternaria solani, 72 h, Table A2, 2 ppm a.i., 3 days after inoculation, read-out: Efficacy in % found",42%
same,pest or weed control at 4 ppm,"Alternaria solani; Alternaria solani, 72 h, Table A2, 4 ppm a.i., 3 days after inoculation, read-out: Efficacy in % found",53%
"CCCN(CC)CC1COC2(CCC(C(C)(C)C)CC2)O1 (stereo not drawn) [1.020 spiroxamine, spiroxamine]",Efficacy in % found,"Alternaria solani; Table A1, 25 ppm a.i., 3 days after inoculation",13%
same,Efficacy in % found,"Alternaria solani; Table A1, 50 ppm a.i., 3 days after inoculation",38%
same,Efficacy in % found,"Alternaria solani; Table A1, 100 ppm a.i., 3 days after inoculation",49%
same,Efficacy in % found,"Colletotrichum coccodes; Table B1, 25 ppm a.i.",33%
same,Efficacy in % found,"Colletotrichum coccodes; Table B1, 50 ppm a.i.",44%
same,Efficacy in % found,"Colletotrichum coccodes; Table B1, 100 ppm a.i.",49%
same,Efficacy in % found,"Phakopsora pachyrhizi; Table C1, 25 ppm a.i.",23%
same,Efficacy in % found,"Phakopsora pachyrhizi; Table C1, 50 ppm a.i.",50%
same,Efficacy in % found,"Phakopsora pachyrhizi; Table C1, 100 ppm a.i.",75%
"CC(C)(C)C(O)(CCc1ccc(Cl)cc1)Cn1cncn1 (stereo not drawn) [1.021 tebuconazole, tebuconazole]",pest or weed control at 2.5 ppm,"Alternaria solani; Alternaria solani, 72 h, Table A1, 2.5 ppm a.i., 3 days after inoculation, read-out: Efficacy in % found",5%
same,pest or weed control at 5 ppm,"Alternaria solani; Alternaria solani, 72 h, Table A1, 5 ppm a.i., 3 days after inoculation, read-out: Efficacy in % found",21%
same,pest or weed control at 10 ppm,"Alternaria solani; Alternaria solani, 72 h, Table A1, 10 ppm a.i., 3 days after inoculation, read-out: Efficacy in % found",74%
same,Efficacy in % found,"Colletotrichum coccodes; Table B1, 2.5 ppm a.i.",44%
same,Efficacy in % found,"Colletotrichum coccodes; Table B1, 5 ppm a.i.",44%
same,Efficacy in % found,"Colletotrichum coccodes; Table B1, 10 ppm a.i.",64%
"Cc1nn(C)c(F)c1C(=O)Nc1ccccc1C(C)CC(C)C (stereo not drawn) [2.017 penflufen, penflufen]",Efficacy in % found,"Alternaria solani; Table A2, 5 ppm a.i., 3 days after inoculation",11%
same,Efficacy in % found,"Alternaria solani; Table A2, 10 ppm a.i., 3 days after inoculation",26%
same,Efficacy in % found,"Alternaria solani; Table A2, 20 ppm a.i., 3 days after inoculation",47%
same,Efficacy in % found,"Phakopsora pachyrhizi; Table C2, 5 ppm a.i.",8%
same,Efficacy in % found,"Phakopsora pachyrhizi; Table C2, 10 ppm a.i.",43%
same,Efficacy in % found,"Phakopsora pachyrhizi; Table C2, 20 ppm a.i.",83%
mancozeb [5.013 mancozeb],Efficacy in % found,"Alternaria solani; 12.5 ppm a.i., tomatoes, 3 days after inoculation",28%
same,Efficacy in % found,"Alternaria solani; 25 ppm a.i., tomatoes, 3 days after inoculation",33%
same,Efficacy in % found,"Alternaria solani; 50 ppm a.i., tomatoes, 3 days after inoculation",77%
same,Efficacy in % found,"Colletotrichum coccodes; Table B2, 12.5 ppm a.i.",0%
same,Efficacy in % found,"Colletotrichum coccodes; Table B2, 25 ppm a.i.",0%
same,Efficacy in % found,"Colletotrichum coccodes; Table B2, 50 ppm a.i.",0%
"O=C(NCCc1ncc(C(F)(F)F)cc1Cl)c1ccccc1C(F)(F)F [2.005 fluopyram, fluopyram]",pest or weed control at 5 ppm,"Alternaria solani; Alternaria solani, 72 h, Table A2, 5 ppm a.i., 3 days after inoculation, read-out: Efficacy in % found",53%
same,pest or weed control at 10 ppm,"Alternaria solani; Alternaria solani, 72 h, Table A2, 10 ppm a.i., 3 days after inoculation, read-out: Efficacy in % found",61%
same,pest or weed control at 20 ppm,"Alternaria solani; Alternaria solani, 72 h, Table A2, 20 ppm a.i., 3 days after inoculation, read-out: Efficacy in % found",84%
"O=C(Nc1ccccc1)N(Cc1ccc(Cl)cc1)C1CCCC1 [4.005 pencycuron, pencycuron]",pest or weed control at 25 ppm,"Alternaria solani; Alternaria solani, 72 h, Table A1, 25 ppm a.i., 3 days after inoculation, read-out: Efficacy in % found",5%
same,pest or weed control at 50 ppm,"Alternaria solani; Alternaria solani, 72 h, Table A1, 50 ppm a.i., 3 days after inoculation, read-out: Efficacy in % found",21%
same,pest or weed control at 100 ppm,"Alternaria solani; Alternaria solani, 72 h, Table A1, 100 ppm a.i., 3 days after inoculation, read-out: Efficacy in % found",33%
same,Efficacy in % found,"Colletotrichum coccodes; Table B1, 25 ppm a.i.",33%
same,Efficacy in % found,"Colletotrichum coccodes; Table B1, 50 ppm a.i.",33%
same,Efficacy in % found,"Colletotrichum coccodes; Table B1, 100 ppm a.i.",33%
"CC(C)C1CCC(Cc2ccc(Cl)cc2)C1(O)Cn1cncn1 (stereo not drawn) [1.012 ipconazole, ipconazole]",Efficacy in % found,"Alternaria solani; Table A1, 2.5 ppm a.i., 3 days after inoculation",28%
same,Efficacy in % found,"Alternaria solani; Table A1, 5 ppm a.i., 3 days after inoculation",67%
same,Efficacy in % found,"Alternaria solani; Table A1, 10 ppm a.i., 3 days after inoculation",88%
"CC1CC(C)(C)c2cccc(NC(=O)c3cn(C)nc3C(F)F)c21 (stereo not drawn) [Example 2.027, 3-(difluoromethyl)-1-methyl-N-(1,1,3-trimethyl-2,3-dihydro-1H-inden-4-yl)-1H-pyrazole-4-carboxamide]",pest or weed control at 1 ppm,Alternaria solani; [3],0%
same,pest or weed control at 2 ppm,Alternaria solani; [3],3%
same,pest or weed control at 4 ppm,Alternaria solani; [3],11%
same,pest or weed control at 62.5 ppm,"Septoria tritici; Zymoseptoria tritici, 504 h, read-out: Efficacy in % found, 62.5 ppm a.i.",25%
same,pest or weed control at 125 ppm,"Septoria tritici; Zymoseptoria tritici, 504 h, read-out: Efficacy in % found, 125 ppm a.i.",63%
same,Efficacy %,Pyrenophora teres; 4 ppm,43%
same,Efficacy %,Pyrenophora teres; 20 ppm,62%
same,Efficacy in % found,"Phakopsora pachyrhizi; Table C2, 1 ppm a.i.",50%
same,Efficacy in % found,"Phakopsora pachyrhizi; Table C2, 2 ppm a.i.",95%
same,Efficacy in % found,"Phakopsora pachyrhizi; Table C2, 4 ppm a.i.",100%
"Cc1nn(C)c(F)c1C(=O)Nc1ccccc1C(C)CC(C)C (stereo not drawn) [Example 2.017, penflufen]",Efficacy in % found,Puccinia triticina; 20 ppm a.i.,56%
same,Efficacy in % found,Puccinia triticina; 40 ppm a.i.,89%
same,Efficacy in % found,Puccinia triticina; 80 ppm a.i.,100%
same,Efficacy in % found,Septoria tritici; 20 ppm a.i.,29%
same,Efficacy in % found,Septoria tritici; 40 ppm a.i.,0%
same,Efficacy in % found,Septoria tritici; 80 ppm a.i.,0%
same,Efficacy %,Pyricularia oryzae; 1 ppm,44%
same,Efficacy %,Pyricularia oryzae; 5 ppm,91%
same,Ecotoxicity LC50-96 h found,[1],0.62 ppm a.i.
"N#Cc1c[nH]cc1-c1cccc2c1OC(F)(F)O2 [Example 13.001, fludioxonil]",Efficacy in % found,Venturia inaequalis; 5 ppm a.i.,8%
same,Efficacy in % found,Venturia inaequalis; 10 ppm a.i.,4%
same,Efficacy in % found,Venturia inaequalis; 20 ppm a.i.,4%
same,pest or weed control at 20 ppm,"Puccinia triticina; read-out: Efficacy in % found, 20 ppm a.i.",0%
same,pest or weed control at 40 ppm,"Puccinia triticina; read-out: Efficacy in % found, 40 ppm a.i.",0%
same,pest or weed control at 80 ppm,"Puccinia triticina; read-out: Efficacy in % found, 80 ppm a.i.",0%
same,pest or weed control at 20 ppm,"Puccinia triticina; read-out: Efficacy in % found, Table H1, 20 ppm a.i.",0%
same,pest or weed control at 40 ppm,"Puccinia triticina; read-out: Efficacy in % found, Table H1, 40 ppm a.i.",0%
same,pest or weed control at 80 ppm,"Puccinia triticina; read-out: Efficacy in % found, Table H1, 80 ppm a.i.",22%
same,pest or weed control at 20 ppm,"Septoria tritici; Zymoseptoria tritici, 504 h, read-out: Efficacy in % found, 20 ppm a.i.",29%
same,pest or weed control at 40 ppm,"Septoria tritici; Zymoseptoria tritici, 504 h, read-out: Efficacy in % found, 40 ppm a.i.",29%
same,pest or weed control at 80 ppm,"Septoria tritici; Zymoseptoria tritici, 504 h, read-out: Efficacy in % found, 80 ppm a.i.",29%
same,Efficacy %,Pyricularia oryzae; 0.2 ppm,82%
same,Efficacy %,Pyricularia oryzae; 1 ppm,87% and 88%
same,Efficacy %,Pyricularia oryzae; 5 ppm,89% and 79%
same,Ecotoxicity LC50-96 h found,[1],0.89 ppm a.i.
"N#Cc1c(Cl)c(Cl)c(Cl)c(C#N)c1Cl [5.004 chlorothalonil, chlorothalonil]",pest or weed control at 25 ppm,"Alternaria solani; Alternaria solani, 72 h, 25 ppm a.i., tomatoes, 3 days after inoculation, read-out: Efficacy in % found",13%
same,pest or weed control at 50 ppm,"Alternaria solani; Alternaria solani, 72 h, 50 ppm a.i., tomatoes, 3 days after inoculation, read-out: Efficacy in % found",33%
same,Efficacy in % found,"Colletotrichum coccodes; Table B2, 25 ppm a.i.",8%
same,Efficacy in % found,"Colletotrichum coccodes; Table B2, 50 ppm a.i.",8%
"N#Cc1c[nH]cc1-c1cccc2c1OC(F)(F)O2 [13.001 fludioxonil, fludioxonil]",pest or weed control at 5 ppm,Alternaria solani; [3],77%
same,pest or weed control at 10 ppm,Alternaria solani; [3],85%
same,pest or weed control at 20 ppm,Alternaria solani; [3],95%
CC(O)(Cn1cncn1)c1cnc(Oc2ccc(Br)cc2)cc1C(F)F (stereo not drawn) [I.82],LogP [a],"[2]; Table 1, formula (I)",2.78^[a]
OC(Cn1cncn1)c1ccc(Oc2ccc(Cl)cc2F)nc1C(F)(F)F (stereo not drawn) [I.70],LogP [a],"[2]; Table 1, formula (I)",2.78^[a]
CC(=O)c1ccc(Oc2ccc(C(F)F)cc2)nc1Cl [V.14],LogP [a],"[2]; Table 2, formula (V)",3.15^[a]
